Results reported in article PMC10819809 (Microorganisms, 2024).
≈ marks a conversion by molar mass, not a printed value. Square brackets hold non-standard residues; d marks the D form. Peptide text beside a SMILES is read from it.

Key:
M. tuberculosis H37Rv [1] = details: microdilution broth, 96-well, 2 × 10^5 CFU/mL, 37 °C 14 days, resazurin 48 h; conducted twice with three technical replicates each
MTB = details: peptide 14D combined with another peptide; clinical trial, 255 samples from adults, routine test; cited from earlier work
M. tuberculosis H37Rv [2] = assay type: cell-based, Mycobacterium tuberculosis; parameters: key to Cord Formation at 10 µg/mL, H37Rv: Cord formation like wild type (without peptide) was classified as “normal”; no cord formation was detected, and they were classified as “not observed”; details: for Cord Formation at 10 µg/mL, H37Rv: 10 µg/mL peptide, Nikon Ni-E microscope
MDR-TB = assay type: cell-based, Mycobacterium tuberculosis; parameters: key: Cord formation like wild type (without peptide) was classified as “normal”; no cord formation was detected, and they were classified as “not observed”; details: 10 µg/mL peptide; Nikon Ni-E microscope
M. tuberculosis = assay type: cell-based, Mycobacterium tuberculosis; details: for TTP Values at Different Peptide Concentrations, 30 µg/mL: purified peptide 30 µg/mL, MGIT, BD BACTEC MGIT 320, TB alone 12 d 4 h

| Compound | MIC in µg/mL, H37Rv (M. tuberculosis H37Rv [1]) [µg/mL] | increase in sample positivity rates (MTB) [%] | Cord Formation at 10 µg/mL, H37Rv (M. tuberculosis H37Rv [2]) | effect on cord formation (M. tuberculosis H37Rv [2]; 1 and 10 µg/mL peptide) | Cord Formation at 10 µg/mL, MDR-TB (MDR-TB) | TTP Values at Different Peptide Concentrations, 30 µg/mL (M. tuberculosis) | prolongation of TTP compared to the wild type (M. tuberculosis; 3 µg/mL purified peptide) | reduction of TTP compared to the wild-type peptide 14D (M. tuberculosis; 3 µg/mL purified peptide) [h] | reduction of TTP relative to the untreated control (M. tuberculosis; 3 µg/mL purified peptide) [h] |
| --- | --- | --- | --- | --- | --- | --- | --- | --- | --- |
| CC[C@@H](C)[C@@H](NC(=O)[C@@H](CCCCN)NC(=O)[C@H](N)Cc1c[nH]c2ccccc12)C(=O)N[C@@H](C(=O)N[C@H](Cc1ccccc1)C(=O)N[C@H](Cc1c[nH]c2ccccc12)C(=O)N[C@H](Cc1c[nH]c2ccccc12)C(=O)N[C@H](CCCNC(=N)N)C(=O)N[C@H](CCCNC(=N)N)C(N)=O)C(C)C [peptide 14D] (H-[dW][dK][dI][dV][dF][dW][dW][dR][dR]-NH2) | >50 | 46 | not observed | diminish cord formation | not observed |  |  |  |  |
| CC[C@@H](C)[C@@H](NC(=O)[C@@H](CCCCN)NC(=O)[C@H](N)Cc1c[nH]c2ccccc12)C(=O)N[C@H](CO)C(=O)N[C@H](Cc1ccccc1)C(=O)N[C@H](Cc1c[nH]c2ccccc12)C(=O)N[C@H](Cc1c[nH]c2ccccc12)C(=O)N[C@H](CCCNC(=N)N)C(=O)N[C@H](CCCNC(=N)N)C(N)=O [wkisfwwrr] (H-[dW][dK][dI][dS][dF][dW][dW][dR][dR]-NH2; N-terminus assumed) | 20 (≈ 14.7 µM) |  | normal |  | normal |  |  |  |  |
| CC[C@@H](C)[C@@H](NC(=O)[C@@H](CCCCN)NC(=O)[C@H](N)Cc1c[nH]c2ccccc12)C(=O)N[C@@H](C(=O)N[C@H](Cc1ccccc1)C(=O)NCC(=O)N[C@H](Cc1c[nH]c2ccccc12)C(=O)N[C@H](CCCNC(=N)N)C(=O)N[C@H](CCCNC(=N)N)C(N)=O)C(C)C [wkivfGwrr] (H-[dW][dK][dI][dV][dF]G[dW][dR][dR]-NH2; N-terminus assumed) | 20 (≈ 16 µM) |  | normal |  | normal | neg (55 d) |  |  |  |
| CC[C@@H](C)[C@@H](NC(=O)[C@@H](CCCCN)NC(=O)[C@H](N)Cc1c[nH]c2ccccc12)C(=O)N[C@@H](C(=O)N[C@H](Cc1ccccc1)C(=O)N[C@H](CC(=O)O)C(=O)N[C@H](Cc1c[nH]c2ccccc12)C(=O)N[C@H](CCCNC(=N)N)C(=O)N[C@H](CCCNC(=N)N)C(N)=O)C(C)C [wkivfdwrr] (H-[dW][dK][dI][dV][dF][dD][dW][dR][dR]-NH2) | 20 (≈ 15.3 µM) |  | not observed |  | not observed | neg (55 d) | approximately 22 days |  |  |
| CC[C@@H](C)[C@@H](NC(=O)[C@@H](CCCCN)NC(=O)[C@H](N)Cc1c[nH]c2ccccc12)C(=O)N[C@@H](C(=O)N[C@H](Cc1ccccc1)C(=O)N[C@H](CC(N)=O)C(=O)N[C@H](Cc1c[nH]c2ccccc12)C(=O)N[C@H](CCCNC(=N)N)C(=O)N[C@H](CCCNC(=N)N)C(N)=O)C(C)C [wkivfnwrr] (H-[dW][dK][dI][dV][dF][dN][dW][dR][dR]-NH2; N-terminus assumed) | 20 (≈ 15.3 µM) |  | normal |  | normal |  |  |  |  |
| NH2-wkivfiwrr-CONH2 [14D, position 6 w substituted by i, C-terminal amidated] |  |  |  |  |  |  |  | 25 | 56 |
